In patent US20240117005A1, “NOVEL BICYCLIC PEPTIDES” (THE COUNCIL OF THE QUEENSLAND INSTITUTE OF MEDICAL RESEARCH, priority 2021, published 2024):
Starred links: 1 amine or outer side, 2 acyl side, 3 side chain; linkers in the order of their positions; H or OH if unused. Positions of bridges follow the written chain, without caps; N, C: chain ends. No end group written: not given here. *: point of attachment. TBMB = c1c(C[*:1])cc(C[*:3])cc1C[*:2]; Myristyl = CCCCCCCCCCCCCC*

What was measured:
[1] = test system: metastatic initiating cells (MICs); assay: Flow cytometry for alanine walk (MIC inhibition); type: cell-based; details: alanine walk peptide inhibitors, FACS MIC signature
Protocol: FACS (Fluorescence-activated cell sorting) was performed on single-cell suspensions treated with a suite of alanine walk peptide inhibitors. Cells were stained an array of antibodies to target the metastatic initiating cell (MIC) signature including CD44, CD24, SNAIL, ABCB5, CSV and Hoechst dye to monitor cell viability. The FACS gating strategy used is adopted and modified from our signature for metastatic initiating cells (MICs), which sorted cells based on the MIC, therapeutic resistant phenotype, shown to be associated with metastatic and aggressive cancer cells. A flow cytometry gating strategy was always included in the analysis to exclude dead cells ([…]). Flow cytometry acquisition was performed on single cell suspensions using BLSR II. Analysis was performed using FlowJo software.

MDA-MB-231 cells = assay: WST-1 cell proliferation assay, MDA-MB-231; type: cell-based, human; details: MDA-MB-231, WST-1, 72 hours
Protocol: (§1) MDA-MB-231 cells were seeded at 4×10^3 cells/well into a 96-well flat bottom tissue culture plate in a final volume of 100 ul and left to adhere for 24 hours at 37° C. and 5% CO2. Cells were then treated with inhibitors for 72 hours at a final concentration of 200, 100, 50, 25, 12.5 or 6.25 μM. Following inhibition, media was removed and replaced with 100 μL/well of WST-1 cell proliferation reagent (Sigma-Aldrich, Cat# 11644807001) at 1:10 final dilution. Absorbance was recorded at 450 nm at 1, 2, 3, and 4 hour incubation periods using a microplate spectrophotometer (with 30 sec mix time). Data represent a single independent experiment performed in triplicate, results are graphed as mean +/− standard error (SE).
(§2) (A) CT26, 4T1 or MDA-MB-231 Cells were treated with inhibitors for 72 hours. Following inhibition, media was removed and replaced with WST-1 cell proliferation reagent. Absorbance was recorded at 450 nm after 1 hour. Data represent a single independent experiment performed in triplicate. Results are graphed as mean +/− standard error (SE). B) MDA-MB-231 or CT26 cancer cells were treated with vehicle control, DL-2-Batch 1 (original stock), DL-2-Batch 2 (current stock), DL-2-TBAB or linear PDL1. Cells were permeabilised and were probed with the DUOLINK ligation assay. Cover slips were mounted on glass microscope slides with ProLong nucblue glass Antifade reagent (Life Technologies). PDL1Ac and IMPα1 DUOLINK Digital images were analysed using ImageJ software (ImageJ, NIH, Bethesda, MD, USA) and graphs represent the mean DOT Fluorescent Intensity in the nucleus or the cytoplasm compartments with significant differences calculated as per one-way ANOVA comparison. (C) MDA-MB-231 or CT26 cancer cells were treated with vehicle control, DL-2-Batch 1 (Original stock), DL-2-Batch 2 (current stock), DL-2-TBAB or linear PDL1. Cells were permeabilised and were probed with the DUOLINK ligation assay. Cover slips were mounted on glass microscope slides with ProLong nucblue glass Antifade reagent (Life Technologies). PDL1-unmodified and IMPα1 DUOLINK digital images were analysed using ImageJ software (ImageJ, NIH, Bethesda, MD, USA) and graphs represent the mean DOT fluorescent intensity in the nucleus or the cytoplasm compartments with significant differences calculated as per one-way ANOVA comparison.
(§3) 4T1, CT26 or MDA-MB-231 cancer cell lines were treated with DL-2 or DL-2-D bicyclic inhibitors for 72 hours. Following inhibition, media was removed and replaced with WST-1 cell proliferation reagent. Absorbance was recorded at 450 nm after 1 hour. Data represent a single independent experiment performed in triplicate; results are graphed as mean +/− standard error (SE).
Cells weretreated with inhibitors for 48 hours. Following inhibition, media was removed and replaced with WST-1 cell proliferation reagent. Absorbance was recorded at 450 nm after 1 hour.

MDA-MB-231-Br cells = assay: WST-1 cell proliferation assay, MDA-MB-231-Br; type: cell-based, human; details: WST-1
[2] = test system: cancer cell proliferation; assay: Cancer cell proliferation (Table 12 summary); type: cell-based
Protocol: as §1, §3

CSC = CSC inhibition (Table 10 summary); type: cell-based; details: linear peptide derivatives; change stated relative to prototype PDL1-L1
[3] = test system: 4T1 TNBC metastatic cancer cells; assay: 4T1 model of metastatic breast cancer in mice; type: in vivo, mouse
Protocol: 4T1 Gold standard immunotherapy resistant mouse model mice obtained from the ARC, Perth and mice were inoculated with 4T1 TNBC metastatic cancer cells. DL-2 is supplied lyophilised in glass vials and was reconstituted using sodium chloride injection BP (0.9% saline) to make a stock solution of 10 mg/mL using a needle/syringe, DL-2 was mixed by inversion. Animals were then injected by intraperitoneal injection at 10, 20 or 30 mg/kg daily and rested over the weekend. Mice were monitored over time for body weight and tumour volume.
4T1 Gold standard immunotherapy resistant mouse model mice obtained from the ARC, Perth and mice were inoculated with 4T1 TNBC metastatic cancer cells. DL-2 or DL-2-D is supplied lyophilised in glass vials was reconstituted using sodium chloride injection BP (0.9% saline) to make a stock solution of 10 mg/mL using a needle/syringe, DL-2 was mixed by inversion. Animals were then injected by intraperitoneal injection and mice were monitored over time for body weight and tumour volume for DL-2 at 20 mg/kg every second day with resting over the weekend in conjunction with αPD1 or isotype control (10 mg/kg).
DL-2-D was mixed by inversion. Animals were then injected by intraperitoneal injection and mice were monitored over time for body weight and tumour volume for DL-2-D at a concentration of 20 mg/kg every two days (identical regime to αPD1) in conjunction with αPD1 or isotype control (10 mg/kg).

4T1 cells = assay: WST-1 cell proliferation assay, 4T1; type: cell-based; details: 4T1, WST-1, 72 hours
Protocol: as §2, §3

[4] = Rat plasma stability assay; type: in vitro ADME; details: 37° C., up to 24 hours
Protocol: The stability assay was performed as per CRO's protocol (Creative Peptides). In brief, peptide stability assays were carried out using a rat plasma model with the following steps: • 3.6 mL of human plasma and rat plasma were thawed at room temperature and centrifuged at 3000 rpm for 15 min. Remove the precipitate. • Prepare 20 mL termination solution ([…]) and precool at 4° C. • Prepare the following solution:
• Incubate the tube at 37° C. Take out 200 μL plasma sample at desired time points up to 24 hours respectively (e.g., at 0, 15, 30, 60, 120 mins, etc). Add 400 μL pre-cooled stop solution, centrifuge at 3000 rpm, 4° C. for 15 min, and carefully aspirate the supernatant. • The supernatant samples were filtered with a 0.22 μm filter membrane, and then analysed by LC-MS in order to determine the percentage of the test compound remaining.
The stability assay was performed using the same protocol as described above in Example 7.

CT26 cells = assay: WST-1 cell proliferation assay, CT26; type: cell-based, mouse; details: CT26, WST-1, 72 hours
Protocol: as §2, §3

CD8+ TIM3+ T cells = assay: FACS of CD8+ TIM3+ T cells from 4T1 tumour mouse model; type: in vivo; details: 4T1 TNBC tumour mouse model
Description: FIG. 32 provides graphical representations showing a comparison between DL-2 and DL-2-D. (A) As per FIGS. 24, and 25, above. (B) Fixed cells were washed with PBS and resuspended in PBS containing 1% BSA prior to antibody staining. Primary antibodies targeting CD8, TIM3 and PD1 antibodies were used. Appropriate antibody controls were used for all flow cytometry stain and acquisition. All samples were acquired on an LSR Fortessa cytometer (BD Biosciences, Franklin Lakes, NJ), and data were analyzed using FlowJo v10 software

[5] = test system: PDL1-PTM1, CSV and ALDH1A1 in 4T1 cells; assay: Imaging of PDL1-PTM1, CSV and ALDH1A1 after cyclic PDL1 peptide; type: cell-based; details: 4T1 breast cancer cell line (Table 11 comment)
Protocol: Breast cancer cell line, 4T1, was treated with vehicle control or cyclic PDL1 peptide (cyclic PDL1) at a concentration of 50 μM. Cells were permeabilised and were probed with primary antibodies against PDL1-PTM1, CSV and ALDH1A1. Cover slips were mounted on glass microscope slides with ProLong nucblue glass Antifade reagent (Life Technologies). PDL1-PTM1, CSV and ALDH1A1 digital images were analysed using ImageJ software (ImageJ, NIH, Bethesda, MD, USA). Graphs represent the mean fluorescent intensity in the nucleus or the cytoplasm compartments with significant differences calculated as per Mann-Whitney analysis or the ratio of nuclear to cytoplasmic staining for PDL1-PTM1 which was calculated using the formula F(n−b)/(c−b) wherein n=nuclear staining, b=background, c=cytoplasmic. A ratio of 1 or high indicates nuclear bias, under 1 indicates cytoplasmic bias.

[6] = DL-2-D (20 mg/kg) and αPD1 (10 mg/kg) combination therapy, day 20

TFIFRLRKGRMADVKK
% Inhibition (number of metastatic initiating cells) [1]: 100%

TFIARLRKGRMMDVKK
% Inhibition (number of metastatic initiating cells) [1]: 4.4%

TFIFRLRAGRMMDVKK
% Inhibition (number of metastatic initiating cells) [1]: 0%

TFIFRLRKGRMMDVKA
% Inhibition (number of metastatic initiating cells) [1]: 58.03%

LTFICFRLRKGRMCMDVCGKK (Myristyl-LTFICFRLRKGRMCMDVCGKK; linker 5-14-18 via TBMB) [DL-1, bicyclic peptide, Myristyl- N-terminus, TBMB backbone]
inhibition of proliferation (MDA-MB-231 cells): able to inhibit proliferation
inhibition of proliferation (MDA-MB-231-Br cells): able to inhibit proliferation
fold less potent than DL-2 at inhibiting cancer cell proliferation [2]: DL-1 was 3-fold less

TFIFRLRKGRAMDVKK
% Inhibition (number of metastatic initiating cells) [1]: 74.35%

ACLTFIFCRLRKGRCMMDVKK [DL2-Linear, Myristyl- DL2 linear peptide]
Potency (CSC inhibition) (CSC): No change

TFIFRARKGRMMDVKK
% Inhibition (number of metastatic initiating cells) [1]: 35.6%

acltfifcrirckGrcmmdvkk [DL-2-D]
lung metastasis [3, 6]: reduces
primary tumour burden [3, 6]: reduces
lung, liver or spleen weights ([3]; DL-2-D alone): does not alter
body weight ([3]; DL-2-D and anti-PD1 combination therapy): No change
tumour volume ([3]; DL-2-D as a monotherapy agent): significantly inhibits
lung, liver or spleen weights ([3]; DL-2-D in combination with anti-PD1): does not alter
body weight ([3]; DL-2-D monotherapy): No change
inhibition of proliferation (MDA-MB-231 cells): significantly inhibit the proliferation
inhibition of proliferation (4T1 cells): significantly inhibit the proliferation
stability in rat plasma (percentage of test compound remaining) [4]: significantly more stable
inhibition of proliferation (CT26 cells): significantly inhibit the proliferation
abrogating the TIM3+ immunotherapy-resistant signature in CD8+ T cells (CD8+ TIM3+ T cells): more potent than DL-2

TFIFRLRKGRMMAVKK
% Inhibition (number of metastatic initiating cells) [1]: 100%

ACLTFIFRLRCKGRMCMDVGKK (Myristyl-ACLTFIFRLRCKGRMCMDVGKK; linker 2-11-16 via TBMB) [DL-3, bicyclic peptide, Myristyl- N-terminus, TBMB backbone]
inhibition of cancer cell proliferation ([2]; Table 12 comment): DL-3 displayed no

LTFIFRLRKGRMMDVKKAGGA (Myristyl-LTFIFRLRKGRMMDVKKAGGA; not fully specified) [PDL1-L1 C2, Myristyl- cyclic peptide derivative, 4 linker amino acids]
inhibition of mesenchymal cancer markers and nuclear PDL1-PTM1 [5]: Failed to inhibit

AFIFRLRKGRMMDVKK
% Inhibition (number of metastatic initiating cells) [1]: 80.13%

acltfifcrlrkGrcmmdvkk [DL2-D-Linear]
Potency (CSC inhibition) (CSC): No change

TFIFRLAKGRMMDVKK
% Inhibition (number of metastatic initiating cells) [1]: 43.98%

kkvdmmcrGkrlrcfiftlca [DL2-D Ret Linear]
Potency (CSC inhibition) (CSC): No change

TFIFRLRKGAMMDVKK
% Inhibition (number of metastatic initiating cells) [1]: 62.69%

TFIFRLRKARMMDVKK
% Inhibition (number of metastatic initiating cells) [1]: 41.38%

TFAFRLRKGRMMDVKK
% Inhibition (number of metastatic initiating cells) [1]: 30.2%

TFIFRLRKGRMMDAKK
% Inhibition (number of metastatic initiating cells) [1]: 81.9%

TFIFRLRKGRMMDVAK
% Inhibition (number of metastatic initiating cells) [1]: 48.7%

TAIFRLRKGRMMDVKK
% Inhibition (number of metastatic initiating cells) [1]: 74.35%

TFIFALRKGRMMDVKK
% Inhibition (number of metastatic initiating cells) [1]: 71.67%
